# Laboratory results from PubChem BioAssay AID602267 (Broad Institute, 2012).
# Active and inactive are the calls of the source.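 How the source made its calls: active means signal falls with dose and the fitted half-maximal concentration is at or below twice the top valid tested dose; inconclusive means flat curve with 30 to 70% inhibition, or poor fit; inactive means wrong direction, flat within 30%, or potency beyond limit.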
# Target: Golgi-associated PDZ and coiled-coil motif-containing protein (Homo sapiens) (UniProt Q9HD26)
# Experiment: blockers of CAL PDZ ligand groove binding – biochemical, fluorescence polarization, untagged CAL PDZ, cherry-pick, dose response (AID 602267);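 on activity change, negative = inhibition: 0% = DMSO neutral wells and -100% = excess unlabeled competitor peptide wells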
# Settings: purified CAL PDZ, TMR-peptide fluorescence polarization, 1 h
row,SMILES,AC50 [µM]
1,COc1ccc(S(=O)(=O)Nc2cc(SCC(=O)O)c(O)c3ccccc23)cc1,34.2

# Same assay, conditions: purified CAL PDZ, TMR-peptide fluorescence polarization, 1 h; at 16 µM (top of the series)
row,SMILES,"activity change, negative = inhibition"
1,COc1cccc(NC(=O)N2CCCCCC2)c1,inactive
2,O=C(OCC(=O)N1CCOCC1)c1ccc[nH]c1=O,inactive

# Same assay, conditions: purified CAL PDZ, TMR-peptide fluorescence polarization, 1 h; at 50 µM (top of the series)
row,SMILES,"activity change, negative = inhibition"
1,Cc1ccc2nc3c(nc2c1)-c1ccccc1C3=O,inactive
2,COc1cccc(N2CCN(C(=O)c3ccc(-c4ccccc4)cc3)CC2)c1,inactive
3,COCC(=O)NNC(=O)c1ccc(OC)cc1,inactive
4,Cc1ccc(CN(C(=O)c2ccco2)C(C(=O)NC2CCCC2)c2cccnc2)cc1 (stereo unspecified),inactive
5,CCOc1ccc(N(CC(=O)N2CCN(Cc3ccccc3)CC2)S(C)(=O)=O)cc1,inactive
6,CN(c1nc(-c2ccc(Br)cc2)cs1)C1CCS(=O)(=O)C1 (stereo unspecified),inactive
7,CCn1c(=O)c(C(C)=O)c(O)c2ccccc21,inactive
8,CCN1C(=O)CS/C1=N\S(=O)(=O)c1ccc(Cl)cc1,inactive
9,CCCn1nnnc1NCc1cc(Br)ccc1OC,inactive
10,CCOc1c(Cl)cc(CNc2nnnn2C)cc1OC,inactive
11,CC(=O)NC(Cc1ccccc1)C(C)=O (stereo unspecified),inactive
12,O=[N+]([O-])c1ccccc1/C=N/Nc1nc(N2CCCC2)nc(N2CCCC2)n1,inactive
13,COc1ccc(CNCCc2c[nH]c3ccccc23)c(OC)c1OC,inactive
14,COc1ccc(/C=N/NC(=O)c2cccc(C(F)(F)F)c2)cc1,inactive
15,CCOc1ccc(NC(=O)c2nsc(Cl)c2Cl)cc1,inactive
16,CC1=NN(C(N)=S)C(=O)C1N=Nc1ccc(Cl)cc1 (stereo unspecified),inactive
17,Cc1cc(Cl)c(Cl)cc1S(=O)(=O)NCCCn1ccnc1,inactive
18,O=C(/C=C/c1cccs1)Nc1scc(-c2ccccc2)c1C(=O)O,inactive
19,CCN(CC)S(=O)(=O)c1ccc2nc(NC(=O)c3ccco3)sc2c1,inactive
20,O=C(COC(=O)CNC(=O)c1cccc([N+](=O)[O-])c1)NCc1ccco1,inactive
21,COC(=O)c1ccccc1NC(=O)n1cc(C)cn1,inactive

row,SMILES,"activity change, negative = inhibition"
1,Cc1ccc(-c2nc3ccccc3c(=O)o2)cc1,inactive
2,CCOC(=O)CCNC(=O)N1CCCC(CNS(=O)(=O)Cc2ccccc2)C1 (stereo unspecified),inactive
3,CCCCN(CCCC)CCNC(=O)c1ccc2nc(-c3ccccc3NC(C)=O)c(=O)[nH]c2c1,inactive
4,CN(C)c1ccc(C=c2c3ccccc3n3c2cc(-c2ccccc2)[n+]3C)cc1,inactive
5,O=C(NCc1cccnc1)/C(=C/c1ccc(-c2cccc(C(F)(F)F)c2)o1)NC(=O)c1ccccc1,inactive
6,Cn1c(CNC(=O)OC(C)(C)C)n[nH]c1=S,inactive
7,Cc1cccc(NC(=O)Cn2cnc3c(oc4ccccc43)c2=O)c1C,inactive
8,Cc1ccccc1CN(C)C(C)C(=O)Nc1ccccc1F (stereo unspecified),inactive
9,CCNC(=S)N1CCc2cc(OC)c(OC)cc2C1COc1ccc(OC)cc1 (stereo unspecified),inactive
10,CC(C)c1ccc(CNC(=O)C(=O)NCCCn2ccnc2)cc1,inactive
11,NC(=O)c1cc2ccccc2o/c1=N\NC(=O)c1ccncc1,inactive
12,COc1ccc(CSc2ncnc3sccc23)cc1F,inactive
13,COc1cc(/C=C2\C(=O)NC(=O)N(c3ccccc3)C2=O)c([N+](=O)[O-])cc1OC,inactive
14,Cc1cc(C)nc(CCNC(=O)c2cc(COc3c(C)cccc3C)on2)n1,inactive
15,NS(=O)(=O)c1ccc(N2N=C(c3ccccc3)CC2c2ccccc2)cc1 (stereo unspecified),inactive
16,CC(CCCC(C)(C)O)NC(=O)c1ccc(OC2CCN(C(=O)C3CC3)CC2)cc1 (stereo unspecified),inactive
17,CCN(C(=O)CSc1ncccc1C(=O)O)C1CCCCC1,inactive
18,COc1ccc(Nc2cccccc2=O)cc1,inactive
19,CC(=O)Nc1ccc(Nc2ccc3nonc3c2[N+](=O)[O-])cc1,inactive
20,COc1ccc(OC)c(S(=O)(=O)NCCCn2ccnc2)c1,inactive
21,Cc1ccc(NC(=O)CN(C)CC(=O)Nc2cccc(F)c2)cc1S(=O)(=O)N1CCCCCC1,inactive

row,SMILES,"activity change, negative = inhibition"
1,O=C1OC(c2ccccc2)(c2ccccc2)c2ccccc21,inactive
2,CCN(CC)CCn1c(SCC(=O)NCc2ccccc2)nc2c(sc3ccccc32)c1=O,inactive
3,N#Cc1ccc(CC(=O)c2ccccc2)[nH]c1=O,inactive
4,CCN1CCN(S(=O)(=O)c2ccc(OC)c3ccccc23)CC1,inactive
5,CC(C)CNC(=O)COC(=O)CCC(=O)c1ccc(Cl)cc1,inactive
6,COc1ccc(C(=O)Nc2nccs2)cc1,inactive
7,CCCCNC(=O)c1ccc(-n2c(=S)[nH]c3ccccc3c2=O)cc1,inactive
8,COc1ccc(CN2CN(C3CCCC3)CSC2=S)cc1,inactive
9,CC(=O)Nc1cc(NC(C)=O)cc(C(=O)OCC(=O)Nc2ccc(S(=O)(=O)NC3=NCCCCC3)cc2)c1,inactive
10,C/C(=N\NC(=O)c1cc(-c2ccc(C)s2)nc2ccccc12)c1cccnc1,inactive
11,CC(C)OCCCNC(=O)C1CC(=O)N(CCc2ccc(F)cc2)C1 (stereo unspecified),inactive
12,C(=C/c1nccc2c1[nH]c1ccccc12)/c1ccc2c(c1)OCO2,inactive
13,CCOC(=O)/C=C/C(=O)OCC(=O)Nc1ccc([N+](=O)[O-])cc1,inactive
14,Cc1ccc(C(=O)NC(=S)N2CCN(c3cc(C)ccc3C)CC2)cc1,inactive
15,O=[N+]([O-])c1ccccc1S(=O)(=O)NC1CCCCCCC1,inactive
16,Cc1ccc(F)cc1N=Cc1c(O)c2ccccc2oc1=O,inactive
17,O=C(O)CC1(CC(=O)Nc2ccc(Br)cc2)CCCCC1,inactive
18,Cc1ccc(S(=O)(=O)N2CCN(C(=O)c3cc(=O)c4ccccc4o3)CC2)cc1,inactive
19,Cc1cccc(N=Nc2c(O)[nH]c3ccc(F)cc23)c1,inactive
20,Oc1ccc(/C=N\Nc2nncc(-c3ccccc3)n2)cc1,inactive
21,CCC(C(=O)NN1C(=O)c2ccccc2C1=O)c1ccccc1 (stereo unspecified),inactive
